From patent publication US7365160B2, “Mutated constitutively active nuclear orphan receptor” (The United States of America as represented by the …, priority 2002, dated 2008)

What was measured:
[1] = test system: chimeric receptors hmm and hhm; test: luciferase reporter assay in HepG2 cells, chimeric receptors with mouse LBD; assay type: cell-based, mouse/human; conditions: chimeras hmm and hhm repressed by KN-62
mCAR T176V / T176L = test: luciferase reporter gene activation assay (PBREM) in HepG2 cells, mCAR Thr176 mutants; conditions: T176V or T176L; did not require exogenous SRC-1
mCAR L352A = target: T1, mCAR L352A (Mus musculus, UniProt O35627, L352A); test: luciferase reporter gene activation assay (PBREM) in HepG2 cells, mCAR L352A mutant; assay type: cell-based; conditions: only in the presence of exogenous SRC-1
T1 construct: mCAR and hCAR expression vectors were constructed by cloning an entire mCAR; expressed in transfected cells; host or cells: HepG2
T1 sequence (O35627 1-358 L352A): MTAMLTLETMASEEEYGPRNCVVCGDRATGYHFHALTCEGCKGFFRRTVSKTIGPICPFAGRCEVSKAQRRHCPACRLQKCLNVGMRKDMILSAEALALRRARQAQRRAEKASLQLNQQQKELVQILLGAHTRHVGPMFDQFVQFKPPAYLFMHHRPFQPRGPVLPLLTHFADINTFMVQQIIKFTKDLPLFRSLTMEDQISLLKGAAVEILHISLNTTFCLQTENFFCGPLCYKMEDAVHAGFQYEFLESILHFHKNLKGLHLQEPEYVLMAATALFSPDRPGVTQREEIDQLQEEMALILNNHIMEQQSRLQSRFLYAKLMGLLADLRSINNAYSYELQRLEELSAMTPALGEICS
Excerpt: To examine the role of Leu352 in mCAR activity, site-directed mutagenesis was used as described in EXAMPLES 2 and 6.

## Clc1cnc(Oc2ccc(Oc3ncc(Cl)cc3Cl)cc2)c(Cl)c1 [TCPOBOP, 1,4-bis [2-(3,5-dichloropyridyloxy)]benzene]
[1]
  re-activation of KN-62-repressed chimeric receptors: re-activated
mCAR T176V / T176L
  activation of mutated mCAR: effectively activated
mCAR L352A
  activation of L352A mutant: activated
